Data taken from patent US6107275A, “Cyclic Antiplatelet peptides with pseudo-bond” (Merrell Pharmaceuticals Inc., priority 1997, dated 2000).

Experiments:
human platelets = human platelets (Homo sapiens, UniProt P05106+P08514); experiment: 125I-Fibrinogen binding to platelets; details: 0.1 μM 125I-fibrinogen, thrombin or activator peptide stimulus
Protocol: Preparation of Human Platelets
Human blood was collected by venipuncture in tubes containing one-tenth volume of acid-citrate-dextrose as an anticoagulant. Platelet-rich plasma was prepared by centrifugation of the blood for 10 min at 500 g at room temperature. The platelet-rich plasma was decanted and one-tenth volume of acid-citrate-dextrose was added followed by centrifugation at 1000 g at room temperature for 10 min to sediment the platelets. The platelets were suspended in two ml modified Tyrode's buffer (2 M NaCl, 0.5 M dextrose, 0.2 M NaHCO3, 0.1 M KCl, 0.1 M MgCl2, 0.1 M NaH2 PO4 and 0.1 M HEPES, pH 7.3) containing 0.35% bovine serum albumin and then filtered on a 50 ml column of Sepharose 2B (Pharmacia) equilibrated with Tyrode's buffer. Finally, the platelets were counted in an automated hematology analyzer.
Human low solubility fibrinogen (Kabi) was prepared as described previously (Lipinska et al., 1974). For ^125 I labeling, fibrinogen (1 mg) was incubated with three Iodo-Beads (Pierce Chemical Co.) and 1 mCi of Na^125 I for 15 min after with ^125 I-fibrinogen was separated from free radioactivity by filtration through a PD-10 column (Pharmacia). The specific activity was approximately 1-5×10^17 CPM/mol fibrinogen.
Binding of fibrinogen to human platelets was performed as described by Plow and Ginsberg (1981). Binding assays contained, in a volume of 0.2 ml, 1-2×10^7 platelets, 0.1 μM ^125 I-fibrinogen, 2 mM CaCl2 and 0.1 U/ml thrombin or various concentrations of activator peptides as a stimulus. Incubations were carried out in 1.2 ml Eppendorf microcentrifuge tubes at room temperature for 30 min and then duplicate 75 μl aliquots were layered onto 0.4 ml of 20% sucrose in Tyrode's buffer containing 1% bovine serum albumin and platelets were sedimented by centrifugation at 10,000 g for 5 min in a Beckman microcentrifuge. Tips of the centrifuge tubes were amputated and bound ^125 I-fibrinogen was measured in a gamma counter (LKB/Pharmacia). Nonspecifically bound radioactivity was determined in incubations in which activators were excluded and these values were 1-5% of those obtained with thrombin activation.

[1] = target: Human platelet rich plasma (PRP) (Homo sapiens, UniProt P05106+P08514); details: read-out: Platelet Aggregation ADP Induced IC50, ADP (1 μM)
Protocol: Platelet Aggregation In Vitro
Human platelet rich plasma (PRP) was prepared by centrifugation at 200×g for 10 min. at room temperature. Platelet poor plasma (PPP) was prepared by centrifugation at 2000×g for 10 min. PRP was exposed only to plastic laboratory ware. All experiments were completed within 3 hr of blood collection. Platelet aggregation was measured photometrically using a Chrono-log dual channel aggregometer (Chrono-log Corp., Haverstown, Pa. 19083). One hundred percent light transmission was defined with autologus PPP. Percent maximal change in light transmission was determined from PRP following addition of ADP (1 μM) or thrombin. […] MDL 102,530 was incubated with PRP (0.45 ml) for 30 sec prior to the addition of ADP or thrombin. Aggregation was measured in a total volume of 0.5 ml. Inhibitory responses were expressed s percent inhibition when compared to a control value. The concentration resulting in 50% inhibition of aggregation (IC50) was calculated by simple linear regression.

Purified GPIIbIIIa = target: T1, Purified GPIIbIIIa (Homo sapiens, UniProt P05106+P08514); experiment: GPIIbIIIa (fibrinogen) enzyme-linked immunoassay (ELISA); details: purified human platelet GPIIbIIIa binding to immobilized fibrinogen; read-out: GPIIbIIIa (Fibrogen ELISA IC50)
T1 construct: GPIIbIIIa was purified from human platelets; from tissue; host or cells: human platelets
Protocol: GPIIbIIIa Enzyme-Linked Immunoassay
Low solubility fibrinogen, prepared as described by Lipinska et al., J. Lab. Clin. Med., 84, 509-516 (1974) (human, KABI) was immobolized at 5 μg/well on Immunolon 2-96 well plates (inculated overnight at 4° to bind to the wells). The wells were blocked with 0.5% bovine serum albumin in buffer A ([…] Tris-HCl, pH 7.5, 2 mM CaCl2, 120 mM […], and 0.02% NaN3) for two hours at room temperature. All subsequent steps were carried out at room temperature. The wells were washed three times with buffer A plus 0.5% Tween 20 (BioRad). Purified GPIIbIIIa (2 μg/well) plus synthetic peptides supplements at the indicated concentrations were conincubated for 90 to 120 min with immobilized fibrinogen. The wells were washed as above, then the anti-GPIIbIIIa monoclonal antibody, CD41a, was added to each well and incubated for 60 min. After another three washes, goat anti-mouse horseradish peroxidase conjugate was added to each well (60 min). The wells were washed three times with buffer A plus detergent, followed by two washes with buffer A minus detergent. The peroxidase substrate, 3,3',5,5'-tetramethylbenzidine (Kirkegaard and Perry Laboratories, Inc.) was added to the wells for color development. The reaction was stopped with 0.3N H2 SO4, and absorbances were measured at 450 mn using a microplate reader (Multiscan II, Flow-Titertek).
GPIIbIIIa was purified from human platelets as described by Fitzgerald, et al., Anal. Biochem., 151, 169-177 (1985), except that the final gel purification step was performed with an HW55 size exclusion column (Waters, Advanced Protein Purification System), instead of Sephacryl S-300. The protein, greater than 90% pure as assessed by SDS polyacrylamide gel electrophoresis, was stored at -80° C. in small aliquots.

human platelets, sequence (P08514 32-1039): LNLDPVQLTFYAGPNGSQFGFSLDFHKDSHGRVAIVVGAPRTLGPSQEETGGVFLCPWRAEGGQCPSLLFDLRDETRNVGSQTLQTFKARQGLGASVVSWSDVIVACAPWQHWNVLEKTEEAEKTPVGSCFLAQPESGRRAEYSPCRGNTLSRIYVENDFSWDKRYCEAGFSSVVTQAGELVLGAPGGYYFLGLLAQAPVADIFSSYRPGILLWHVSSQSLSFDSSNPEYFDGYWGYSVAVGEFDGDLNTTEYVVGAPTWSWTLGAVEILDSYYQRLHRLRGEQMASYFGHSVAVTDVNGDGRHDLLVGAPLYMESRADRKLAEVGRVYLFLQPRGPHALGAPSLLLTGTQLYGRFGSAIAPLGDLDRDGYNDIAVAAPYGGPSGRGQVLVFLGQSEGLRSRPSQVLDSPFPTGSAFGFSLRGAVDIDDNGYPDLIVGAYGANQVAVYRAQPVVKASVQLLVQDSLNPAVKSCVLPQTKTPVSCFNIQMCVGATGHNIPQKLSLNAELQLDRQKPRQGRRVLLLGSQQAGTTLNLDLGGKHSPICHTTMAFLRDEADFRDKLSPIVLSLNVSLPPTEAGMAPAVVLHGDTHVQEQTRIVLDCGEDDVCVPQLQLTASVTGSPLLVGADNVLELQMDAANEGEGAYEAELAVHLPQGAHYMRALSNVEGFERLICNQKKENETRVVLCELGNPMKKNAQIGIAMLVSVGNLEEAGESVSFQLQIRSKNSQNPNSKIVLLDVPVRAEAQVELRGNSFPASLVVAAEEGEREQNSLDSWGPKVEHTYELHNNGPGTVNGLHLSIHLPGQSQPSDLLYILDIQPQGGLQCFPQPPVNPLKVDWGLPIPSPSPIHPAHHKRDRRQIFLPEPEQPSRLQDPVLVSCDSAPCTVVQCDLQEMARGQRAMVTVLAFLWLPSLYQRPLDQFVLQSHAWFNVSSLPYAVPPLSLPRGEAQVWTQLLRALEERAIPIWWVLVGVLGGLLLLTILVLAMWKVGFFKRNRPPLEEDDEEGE
human platelets, sequence (P05106 27-788): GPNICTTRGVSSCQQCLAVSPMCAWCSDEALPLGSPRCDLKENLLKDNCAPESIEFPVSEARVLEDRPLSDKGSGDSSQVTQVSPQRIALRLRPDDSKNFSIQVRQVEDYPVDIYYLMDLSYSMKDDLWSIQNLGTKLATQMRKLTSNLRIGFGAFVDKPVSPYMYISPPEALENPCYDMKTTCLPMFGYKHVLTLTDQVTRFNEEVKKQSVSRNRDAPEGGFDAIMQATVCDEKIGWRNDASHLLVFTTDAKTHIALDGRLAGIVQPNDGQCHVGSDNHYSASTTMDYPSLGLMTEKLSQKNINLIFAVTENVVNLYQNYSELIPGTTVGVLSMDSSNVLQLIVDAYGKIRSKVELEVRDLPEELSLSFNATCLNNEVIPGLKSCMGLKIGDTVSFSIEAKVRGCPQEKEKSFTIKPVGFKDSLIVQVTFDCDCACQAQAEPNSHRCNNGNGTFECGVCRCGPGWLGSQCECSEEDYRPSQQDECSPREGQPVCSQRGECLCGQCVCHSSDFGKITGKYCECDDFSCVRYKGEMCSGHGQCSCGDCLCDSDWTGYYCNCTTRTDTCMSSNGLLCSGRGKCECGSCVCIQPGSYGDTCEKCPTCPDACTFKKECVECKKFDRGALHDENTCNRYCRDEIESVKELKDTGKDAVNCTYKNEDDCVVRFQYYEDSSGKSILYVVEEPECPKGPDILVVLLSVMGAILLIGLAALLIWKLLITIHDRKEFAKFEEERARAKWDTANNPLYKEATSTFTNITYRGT
T1 sequence (P08514 32-887 limits assumed): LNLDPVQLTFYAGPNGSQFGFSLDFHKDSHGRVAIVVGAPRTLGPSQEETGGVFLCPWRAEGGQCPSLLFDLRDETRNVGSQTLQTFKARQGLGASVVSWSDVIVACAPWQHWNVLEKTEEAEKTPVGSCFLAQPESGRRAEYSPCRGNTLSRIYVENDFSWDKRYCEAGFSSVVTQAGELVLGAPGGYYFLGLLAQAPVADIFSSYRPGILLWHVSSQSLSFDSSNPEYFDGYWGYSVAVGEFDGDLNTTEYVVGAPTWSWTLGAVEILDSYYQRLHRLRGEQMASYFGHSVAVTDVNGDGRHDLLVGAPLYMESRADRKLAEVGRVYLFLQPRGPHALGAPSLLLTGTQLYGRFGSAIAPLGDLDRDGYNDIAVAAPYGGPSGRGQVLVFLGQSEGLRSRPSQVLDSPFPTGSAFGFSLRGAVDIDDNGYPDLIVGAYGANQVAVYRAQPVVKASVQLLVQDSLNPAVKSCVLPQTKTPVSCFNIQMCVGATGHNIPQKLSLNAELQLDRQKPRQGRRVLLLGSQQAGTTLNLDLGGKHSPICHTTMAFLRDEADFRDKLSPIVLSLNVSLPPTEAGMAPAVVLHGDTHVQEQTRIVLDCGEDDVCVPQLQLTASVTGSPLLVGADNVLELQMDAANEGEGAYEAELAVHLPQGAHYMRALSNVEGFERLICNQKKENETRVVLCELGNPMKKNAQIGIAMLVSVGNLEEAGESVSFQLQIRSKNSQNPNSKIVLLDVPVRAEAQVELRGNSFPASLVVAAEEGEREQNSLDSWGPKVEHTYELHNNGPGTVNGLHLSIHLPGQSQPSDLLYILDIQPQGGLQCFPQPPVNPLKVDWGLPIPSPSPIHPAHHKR
T1 sequence (P08514 891-1039 partner limits assumed): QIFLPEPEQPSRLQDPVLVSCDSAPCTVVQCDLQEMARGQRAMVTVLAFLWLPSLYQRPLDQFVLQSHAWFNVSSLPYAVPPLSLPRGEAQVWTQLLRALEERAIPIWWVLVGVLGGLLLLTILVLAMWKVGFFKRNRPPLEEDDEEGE
T1 sequence (P05106 27-788): as the sequence (P05106 27-788) above
Human platelet rich plasma (PRP), sequence (P08514 32-1039): as the sequence (P08514 32-1039) above
Human platelet rich plasma (PRP), sequence (P05106 27-788): as the sequence (P05106 27-788) above

Structure (SMILES) | IC50 (human platelets) [nM] | IC50 [1] [nM] | IC50 (Purified GPIIbIIIa) [nM]
C[C@H]1CN(CCCc2ccccc2)[C@@H](CCCNC(=N)N)C(=O)NCC(=O)N[C@@H](CC(=O)O)C(=O)N[C@H](C(=O)NCc2ccccc2)CCC(=O)N1 [IV] | 270 | 6400 | 300
C[C@H]1CN(C(=O)CCN)[C@@H](CCCNC(=N)N)C(=O)NCC(=O)N[C@@H](CC(=O)O)C(=O)N[C@H](C(=O)NCc2ccccc2)CCC(=O)N1 [III] | 2400 | 49200 | 3000
C[C@H]1CN[C@@H](CCCNC(=N)N)C(=O)NCC(=O)N[C@@H](CC(=O)O)C(=O)N[C@H](C(=O)NCc2ccccc2)CCC(=O)N1 [I] | 2400 |  | 200
C[C@H]1CN(CCCC(=O)O)[C@@H](CCCNC(=N)N)C(=O)NCC(=O)N[C@@H](CC(=O)O)C(=O)N[C@H](C(=O)NCc2ccccc2)CCC(=O)N1 [II] | 1200 |  | 540
